Experimental data taken from patent US20080188542A1, “NOVEL INDOLE POLYMORPHS” (Wyeth, priority 2007, published 2008).
In brackets after ≈: the same amount, converted by molar mass.

Assay: Solubility of polymorph A at room temperature (measurements taken at equilibrium)
Format: physicochemical
Conditions: for solubility: thermodynamic from solid
Experimental: The polymorph A of [1-(4-tert-Butylbenzyl)-5-(3-methylphenyl)-1H-indol-3-yl](oxo)acetic acid of this invention can also be characterized by its solubility rate which is shown in FIG. 5. The solubility rate intrinsic dissolution was conducted in pH 7.5 phosphate buffer medium using USP apparatus 2 (paddle) at 50 rpm. The dissolution rate may be influenced by disk rotation speed and other conditions. The solubility of polymorph A of [1-(4-tert-Butylbenzyl)-5-(3- methylphenyl)-1H-indol-3-yl](oxo)acetic acid has been determined in a number of solvents and the results are listed in Table 5. The solubilities listed in Table 5 are based on measurements taken at equilibrium.

With `Cc1cccc(-c2ccc3c(c2)c(C(=O)C(=O)O)cn3Cc2ccc(C(C)(C)C)cc2)c1` [Polymorph A, [1-(4-tert-Butylbenzyl)-5-(3-methylphenyl)1H-indol-3-yl](oxo)acetic acid] the solubility (2% polysorbate 80/0.5% methylcellulose, aqueous with cosolvent or surfactant or cyclodextrin, 2% Polysorbate80/0.5% Methylcellulose) was 1.09 mg/mL (≈ 2.56 mM), the “Solubility of Polymorph A” value (Capryol 90) was 73.8 mg/g and the “Solubility of Polymorph A” value (Cremophore EL) was 290 mg/g. For the same molecule, the “Solubility of Polymorph A” value (Labrasol) was >160 mg/g, the “Solubility of Polymorph A” value (PEG 200) was >100 mg/g and the “Solubility of Polymorph A” value (PEG 400) was >100 mg/g. For the same molecule, the “Solubility of Polymorph A” value (Phosal 53 MCT) was 311 mg/g, the “Solubility of Polymorph A” value (Polysorbate 80) was >200 mg/g and the solubility (organic solvent or mixture, Acetone) was 277 mg/mL (≈ 651 mM). The solubility (organic solvent or mixture, DMSO) was > 500 mg/mL, the solubility (organic solvent or mixture, Ethanol) was 12.2 mg/mL (≈ 28.8 mM) and the solubility (organic solvent or mixture, Propylene Carbonate) was 103 mg/mL (≈ 243 mM). It also gave a solubility (organic solvent or mixture, Propylene Glycol) of 7.1 mg/mL (≈ 16.7 mM) and a solubility (Deionized Water) of 0.024 mg/mL (≈ 0.0564 mM).
